Measured values as given in patent publication US11667632B2, “2-(1H-indazol-3-yl)-3H-imidazo[4,5-C]pyridines and their anti-inflammatory uses thereof” (BioSplice Therapeutics, Inc., priority 2015, dated 2023).
Marks after values point to notes of the source that are not given here. Values belong to the compound of their own block, whether it stands above or below them.

What was measured:
[1] = Slurry experiments in various solvents (polymorph screen); type: physicochemical
Procedure: Slurry experiments in various solvents were performed. Approximately 30-80 mg of the starting solid (a non-stoichiometric hydrate of Form 1 having between […] and about 20% by weight water) was slurried in 39 different solvents (pure and binary solvents; the ratio of organic solvent/water (V/V) was […]) at RT and 50° C. for 5 days. Three solvates, one non-stoichiometric hydrate, and eleven non-solvated forms were identified. […] XRD of both wet and dry samples were scanned (FIG. 12A (dry sample)).
The slurry experiments identified 3 solvated forms from wet samples (Solvates 1, 2, and 3); 2 non-stoichiometric hydrates of Form 1 (Forms 12 and 13); and 11 non-solvated forms (Forms 1-11). In some instances, similar XRD scans with minor differences were obtained. These were considered to be part of the same class (e.g., the same form). For example, XRD scans of Form 2 and Form 2* were similar and were considered to belong to the same class. The solvated forms were obtained from wet sample analysis; after drying, the sample indicated a different XRD.
Solvate 1 was obtained from acetone at RT, and after drying, a low crystallinity solid was generated. Solvate 2 was obtained from acetone (at RT) and acetone/water (at RT), and after drying, Form 4** was generated. Solvate 3 was obtained from EtOH/water at RT, and after drying, Form 2 was generated.

[2] = Dynamic vapor sorption (DVS) scan; type: physicochemical; settings: for water absorption (DVS scan): at 90% RH
Excerpt: The purity of the Form 13 sample was 98.8%; the KF of an undried Form 13 sample was 35.7%.

IL-6 = test: Inhibition of IL-6 in LPS-stimulated human monocyte cells (THP-1), HTRF; type: cell-based; settings: THP-1 cells; for EC50: Homo sapiens, LPS 500 ng/mL, IL-6 by HTRF
Procedure: Human Monocyte Cell Culture: A human monocyte cell line (THP-1 cells; Catalog #TIB-202, ATCC, Manassas, Va.) was cultured in Roswell Park Memorial Institute (RPMI) 1640 Medium (Catalog #21870-100, Buffalo, N.Y.) with 1% L-glutamine, 1% HEPES, 1% sodium pyruvate, 2% sodium bicarbonate supplemented with 100 units/mL penicillin, 50 μg/mL streptomycin, 2-mercaptoethanol (0.05 mM) [basal medium] and 10% fetal bovine serum (Catalog #16140089, Life Technologies, Carlsbad, Calif.) at 37° C. and 5% CO2.
Compound Screening: THP-1 cells were cultured in basal media with 1% FBS for 24 hours before the start of the assay. Each compound of Formula (I) was dissolved in DMSO as a 10 mM stock and used to prepare compound source plates. Serial dilution (1:3, 10-point dose-response curves starting from 10 μM) and compound transfer was performed using the ECHO 550 (Labcyte, Sunnyvale, Calif.) into 384-well white low volume assay plates (Greiner Bio-One) with appropriate DMSO backfill for a final DMSO concentration of 0.1%. THP-1 cells were plated at 5000 cells/well in the 384-well plates and incubated at 37° C. for 2 h. 500 ng/mL of LPS was added after 2 hours and cells were incubated for another 22 hours at 37° C. Plates were spun in a centrifuge for 1 minute at 10,000 rpm and a mixture of anti-IL-6 XL665, and anti-IL-6 Cryptate diluted in reconstitution buffer (Cisbio Inc.) was added to each well. Following incubation for 3 hrs at room temperature, homogeneous time-resolved fluorescence (HTRF) was measured using the Envision (Perkin Elmer) at 665 nm and […]. The ratio of fluorescence at 665 nm to 620 nm was used as a readout for IL-6 quantification. All samples were processed in duplicate. Readings were normalized to DMSO treated cells and normalized activities were utilized for EC50 calculations using the dose-response log (inhibitor) vs. response -variable slope (four parameters) nonlinear regression feature available in GraphPad Prism 5.0 (or Dotmatics). For EC50 of >10 μM, the percent inhibition at 10 μM is provided.

[3] = Competitive slurry experiments between polymorph forms (thermodynamic stability); type: physicochemical; settings: EA at RT and 50° C.; slurried 3-5 days, XRD
Procedure: In order to find out the thermodynamic stability between the different forms, several competitive slurry experiments were carried out. Form 1, Form 2, Form 2*, Form 3, Form 4, Form 4*, Form 4**, Form 5, Form 7, Form 8, Form 9, Form 10, Form 11, Form 11*, and Form 13 (10 mg for each) was mixed and slurried in 2 mL of solvent at both RT and 50° C. The solids were slurried for 3-5 days and then analyzed by XRD.
In order to find out the thermodynamic stability between Form 13 and Form 9, several competitive slurry experiments were carried out. 15 mg of Form 1, Form 9 and Form 13 solid were mixed in 1 mL of toluene, IPAc, and n-butyl acetate, and slurried for 3 days at RT and 50° C.
The residual solid was analyzed by XRD.

[4] = slurry in EtOH/water (5% water), RT
[5] = slurry in Acetone/water (5% water), RT
[6] = slurry in Acetonitrile/water (5% water), RT
[7] = slurry in EA/water (5% water), RT
[8] = slurry in Heptane/water (5% water), RT
[9] = slurry in IPAc/water (5% water), RT
[10] = slurry in MA/water (5% water), 50° C.
[11] = slurry in MIBK/water (5% water), RT
[12] = slurry in MeOH/water (5% water), RT
[13] = slurry in MtBE/water (5% water), RT
[14] = slurry in n-Butyl acetate/water (5% water), RT

Form, Dry [1, 4]: Form 2
Form, Wet [1, 4]: Solvate 3
Structure (SMILES): CC(C)CC(=O)Nc1cncc(-c2ccc3[nH]nc(-c4nc5c(-c6cccc(F)c6)cncc5[nH]4)c3c2)c1 [Solvate 3]

Form, Dry ([1]; slurry in Acetone, 50° C.): Form 4**
Form, Wet ([1]; slurry in Acetone, 50° C.): Solvate 2
Form, Dry [1, 5]: Form 4**
Form, Wet [1, 5]: Solvate 2
Structure (SMILES): CC(C)CC(=O)Nc1cncc(-c2ccc3[nH]nc(-c4nc5c(-c6cccc(F)c6)cncc5[nH]4)c3c2)c1 [Solvate 2]

change of form before and after the DVS scan [2]: did not change its form
water absorption (DVS scan) [2]: 0.8%
Structure (SMILES): CC(C)CC(=O)Nc1cncc(-c2ccc3[nH]nc(-c4nc5c(-c6cccc(F)c6)cncc5[nH]4)c3c2)c1 [Form 9]

EC50 (IL-6): 0.29 µM
Structure (SMILES): CC(C)C(=O)Nc1cncc(-c2ccc3[nH]nc(-c4nc5c(N6CCN(C)CC6)cncc5[nH]4)c3c2)c1 [Compound 2]

EC50 (IL-6): 0.058 µM
Structure (SMILES): CCCCC(=O)Nc1cncc(-c2ccc3[nH]nc(-c4nc5c(-c6ccoc6)cncc5[nH]4)c3c2)c1 [Compound 329]

EC50 (IL-6): 0.033 µM
Structure (SMILES): CC(C)CC(=O)Nc1cncc(-c2ccc3[nH]nc(-c4nc5c(-c6ccccc6F)cncc5[nH]4)c3c2)c1 [Compound 11]

EC50 (IL-6): 0.023 µM
Structure (SMILES): Fc1cccc(-c2cncc3[nH]c(-c4n[nH]c5ccc(-c6cccnc6)cc45)nc23)c1 [Compound 15]

EC50 (IL-6): 0.138 µM
Structure (SMILES): Fc1ccccc1-c1cncc2[nH]c(-c3n[nH]c4ccc(-c5cncc(CN6CCCCC6)c5)cc34)nc12 [Compound 127]

EC50 (IL-6): > 10 µM
Structure (SMILES): O=C(Nc1cncc(-c2ccc3[nH]nc(-c4nc5ccncc5[nH]4)c3c2)c1)C1CC1 [Compound 283]
percent inhibition of IL-6 at 10 μM (IL-6; LPS-stimulated, dose-response starting from 10 μM): (50.7%)

EC50 (IL-6): 4.69 µM
Structure (SMILES): O=C(Nc1cncc(-c2ccc3[nH]nc(-c4nc5c(-c6ccncc6)cncc5[nH]4)c3c2)c1)C1CCCC1 [Compound 170]

EC50 (IL-6): 0.014 µM
Structure (SMILES): CC(C)C(=O)Nc1cncc(-c2ccc3[nH]nc(-c4nc5c(-c6ccccc6F)cncc5[nH]4)c3c2)c1 [Compound 31]

EC50 (IL-6): 0.827 µM
Structure (SMILES): O=C(Nc1cncc(-c2ccc3[nH]nc(-c4nc5ccncc5[nH]4)c3c2)c1)C1CCCCC1 [Compound 286]

water absorption (DVS scan) [2]: 17%
Structure (SMILES): CC(C)CC(=O)Nc1cncc(-c2ccc3[nH]nc(-c4nc5c(-c6cccc(F)c6)cncc5[nH]4)c3c2)c1 [Form 1]

EC50 (IL-6): 0.053 µM
Structure (SMILES): CC(C)(C)C(=O)Nc1cncc(-c2ccc3[nH]nc(-c4nc5c(-c6ccc(F)cc6)cncc5[nH]4)c3c2)c1 [Compound 102]

Form, Dry ([1]; slurry in Acetone, RT): Low
Form, Wet ([1]; slurry in Acetone, RT): Solvate 1
Structure (SMILES): CC(C)CC(=O)Nc1cncc(-c2ccc3[nH]nc(-c4nc5c(-c6cccc(F)c6)cncc5[nH]4)c3c2)c1 [Solvate 1]

EC50 (IL-6): 0.207 µM
Structure (SMILES): c1cncc(-c2ccc3[nH]nc(-c4nc5c(-c6ccoc6)cncc5[nH]4)c3c2)c1 [Compound 315]

EC50 (IL-6): 0.059 µM
Structure (SMILES): CCCC(=O)Nc1cncc(-c2ccc3[nH]nc(-c4nc5c(N6CCCCC6)cncc5[nH]4)c3c2)c1 [Compound 214]

EC50 (IL-6): 0.273 µM
Structure (SMILES): CN(C)Cc1cncc(-c2ccc3[nH]nc(-c4nc5c(N6CCN(C)CC6)cncc5[nH]4)c3c2)c1 [Compound 3]

EC50 (IL-6): 0.075 µM
Structure (SMILES): Fc1ccc(-c2cncc3[nH]c(-c4n[nH]c5ccc(-c6cncc(CN7CCCC7)c6)cc45)nc23)cc1 [Compound 107]

EC50 (IL-6): 0.697 µM
Structure (SMILES): O=C(Cc1ccccc1)Nc1cncc(-c2ccc3[nH]nc(-c4nc5c(-c6ccoc6)cncc5[nH]4)c3c2)c1 [Compound 321]

EC50 (IL-6): 0.011 µM
Structure (SMILES): Nc1cncc(-c2ccc3[nH]nc(-c4nc5c(-c6ccsc6)cncc5[nH]4)c3c2)c1 [Compound 291]

EC50 (IL-6): 0.016 µM
Structure (SMILES): CC(C)(C)C(=O)Nc1cncc(-c2ccc3[nH]nc(-c4nc5c(N6CCCCC6)cncc5[nH]4)c3c2)c1 [Compound 205]

EC50 (IL-6): 0.295 µM
Structure (SMILES): CN1CCN(c2cncc3[nH]c(-c4n[nH]c5ccc(-c6cncc(NC(=O)C7CC7)c6)cc45)nc23)CC1 [Compound 260]

thermodynamic stability between forms (competitive slurry) [3]: most stable
EC50 (IL-6): 0.074 µM
Structure (SMILES): CN1CCN(c2cncc3[nH]c(-c4n[nH]c5ccc(-c6cccnc6)cc45)nc23)CC1 [4*]

EC50 (IL-6): 0.016 µM
Structure (SMILES): CCC(=O)Nc1cncc(-c2ccc3[nH]nc(-c4nc5c(-c6ccsc6)cncc5[nH]4)c3c2)c1 [Compound 289]

EC50 (IL-6): 0.75 µM
Structure (SMILES): CN1CCN(c2cncc3[nH]c(-c4n[nH]c5ccc(-c6cncc(NC(=O)Cc7ccccc7)c6)cc45)nc23)CC1 [Compound 252]

EC50 (IL-6): 0.731 µM
Structure (SMILES): CC(C)(C)CC(=O)Nc1cncc(-c2ccc3[nH]nc(-c4nc5ccncc5[nH]4)c3c2)c1 [Compound 280]

EC50 (IL-6): 1.22 µM
Structure (SMILES): Cc1ccncc1-c1ccc2[nH]nc(-c3nc4c(N5CCCCC5)cncc4[nH]3)c2c1 [Compound 202]

EC50 (IL-6): 0.349 µM
Structure (SMILES): CN1CCN(c2cncc3[nH]c(-c4n[nH]c5ccc(-c6cncc(N7CCOCC7)c6)cc45)nc23)CC1 [Compound 5]

EC50 (IL-6): 0.125 µM
Structure (SMILES): c1cncc(-c2ccc3[nH]nc(-c4nc5c(-c6cccnc6)cncc5[nH]4)c3c2)c1 [Compound 136]

EC50 (IL-6): 0.103 µM
Structure (SMILES): CC(C)CC(=O)Nc1cncc(-c2ccc3[nH]nc(-c4nc5c(N6CCCCC6)cncc5[nH]4)c3c2)c1 [Compound 199]

Form, Dry [1, 6]: Form 1
Form, Wet [1, 6]: Form 12
Form, Dry [1, 7]: Form 1
Form, Wet [1, 7]: Form 12
Form, Dry [1, 8]: Form 12
Form, Wet [1, 8]: Form 13
Form, Dry [1, 9]: Form 1
Form, Wet [1, 9]: Form 12
Form, Dry [1, 10]: Form 4
Form, Wet [1, 10]: Form 12
Form, Dry [1, 11]: Form 1
Form, Wet [1, 11]: Form 12
Form, Dry [1, 12]: Form 1
Form, Wet [1, 12]: Form 12
Form, Dry [1, 13]: Form 1
Form, Wet [1, 13]: Form 12
Form, Dry [1, 14]: Form 12
Form, Wet [1, 14]: Form 13
Structure (SMILES): CC(C)CC(=O)Nc1cncc(-c2ccc3[nH]nc(-c4nc5c(-c6cccc(F)c6)cncc5[nH]4)c3c2)c1 [Form 12]
